Measured values taken from PMC10360169 (Frontiers in Immunology, 2023).

Assays:
[1] = biological target: HLA-A*32:07 (Homo sapiens, UniProt P04439, A270S/D101S/D185E/E176V/E277Q/F133L/F33S/G103R/G107R/G231S/H175R/I121M/I218V/I322F/K168Q/L105A/L300P/L318F/M331R/P208A/P217A/Q94H/R106L/R138Q/S129P/T104I/T323A/T345S/V100E/V321M/V358M); design: method as in ref [40], [41], [43] = [40]; 40 Rasmussen M Harndahl M Kristensen A Nielsen I Jorgensen K Stryhn A . Large Scale analysis of peptide - HLA-I stability . ( 2014 ). || [41]; 41 Harndahl M Lamberth K Justesen S Røder G Madsen M Nielsen M . Large Scale analysis of peptide-HLA class I interactions . ( 2007 ). || [43]; 43 Harndahl M Lamberth K Røder G Justesen S Madsen M Nielsen M . Large Scale analysis of peptide-HLA class I interactions . ( 2010 ).; conditions: IEDB; threshold minimum affinity of 500 nM or minimum half-life of 1 h; ref [40], [41], [43]; cited from earlier work
[2] = biological target: HLA-A*24:02 (Homo sapiens, UniProt P04439, D101N/D140Y/D185E/E176V/E190D/F33S/G103R/G107R/I119L/I121M/I306V/K335N/L105A/L180Q/L300P/N151K/N90K/Q86E/Q94H/R106L/R138H/R89G/T104I/T345S/V100E/W191G/Y123F); conditions: below the IEDB thresholds; no reference given; cited from earlier work
[3] = biological target: HLA-B*35:01 (Homo sapiens, UniProt P01889, A329T/A93T/A95T/C349S/D201E/D98Y/E176V/E187L/E204Q/E69T/I218V/K202T/L119I/Q94N/R155S/R180L/S121R/S35A/S48A/T118I/V127L/V306I/V36M/Y140S/Y91F); design: method as in ref [40]-[43] = [40]; 40 Rasmussen M Harndahl M Kristensen A Nielsen I Jorgensen K Stryhn A . Large Scale analysis of peptide - HLA-I stability . ( 2014 ). || [41]; 41 Harndahl M Lamberth K Justesen S Røder G Madsen M Nielsen M . Large Scale analysis of peptide-HLA class I interactions . ( 2007 ). || [42]; 42 Harndahl M Lamberth K Justesen S Røder G Madsen M Sylvester-Hvid C . Large Scale analysis of peptide-HLA class I interactions . ( 2006 ). || [43]; 43 Harndahl M Lamberth K Røder G Justesen S Madsen M Nielsen M . Large Scale analysis of peptide-HLA class I interactions . ( 2010 ).; conditions: IEDB; threshold minimum affinity of 500 nM or minimum half-life of 1 h; ref [40]-[43]; cited from earlier work
[4] = test system: Acar3; type: binding, great reed warbler Acrocephalus arundinaceus
[5] = biological target: HLA-A*32:15 (Homo sapiens, UniProt P04439, A270S/D101S/D185E/E176V/E277Q/E87N/F133L/G103R/G107R/G231S/H175R/I121M/I218V/I322F/K168Q/L105A/L300P/L318F/M331R/P208A/P217A/Q86R/Q94H/R106L/R138Q/S129P/T104I/T323A/T345S/V100E/V321M/V358M); design: method as in ref [40], [41], [43] = [40]; 40 Rasmussen M Harndahl M Kristensen A Nielsen I Jorgensen K Stryhn A . Large Scale analysis of peptide - HLA-I stability . ( 2014 ). || [41]; 41 Harndahl M Lamberth K Justesen S Røder G Madsen M Nielsen M . Large Scale analysis of peptide-HLA class I interactions . ( 2007 ). || [43]; 43 Harndahl M Lamberth K Røder G Justesen S Madsen M Nielsen M . Large Scale analysis of peptide-HLA class I interactions . ( 2010 ).; conditions: IEDB; threshold minimum affinity of 500 nM or minimum half-life of 1 h; ref [40], [41], [43]; cited from earlier work
[6] = biological target: HLA-A*68:23 (Homo sapiens, UniProt P04439, A269V/D185E/E176V/E277Q/E87N/F33Y/G231S/I121R/I166T/I218V/L180W/L300P/L318F/N151K/P208A/P217A/Q86R/R169H/T345S); design: method as in ref [40], [41], [43] = [40]; 40 Rasmussen M Harndahl M Kristensen A Nielsen I Jorgensen K Stryhn A . Large Scale analysis of peptide - HLA-I stability . ( 2014 ). || [41]; 41 Harndahl M Lamberth K Justesen S Røder G Madsen M Nielsen M . Large Scale analysis of peptide-HLA class I interactions . ( 2007 ). || [43]; 43 Harndahl M Lamberth K Røder G Justesen S Madsen M Nielsen M . Large Scale analysis of peptide-HLA class I interactions . ( 2010 ).; conditions: IEDB; threshold minimum affinity of 500 nM or minimum half-life of 1 h; ref [40], [41], [43]; cited from earlier work
[7] = biological target: HLA-B*58:01 (Homo sapiens, UniProt P01889, A329T/C349S/D201E/D98Y/E176V/E187L/E204Q/E69T/G107R/I218V/I90N/K202T/L105A/L119I/N104I/N87E/Q89R/Q94S/R106L/R155S/R180L/R86G/S101N/S121R/S35A/S48A/T118I/V127L/V306I/V36M/Y140S/Y91M); conditions: IEDB; threshold minimum affinity of 500 nM or minimum half-life of 1 h; ref [40], [41], [43]; cited from earlier work

## MTMITPPTF [P3]
[1]
  binding to HLA-A*32:07: binding partners
[2]
  binding to HLA-A*24:02: weak binding
[3]
  binding to HLA-B*35:01: binding partners
[4]; Table S1, top 94 PSCPL-scoring peptides, SPA, 10µM peptide, 125I β2m, folding over night at 18°C, dissociation measured up to 24 hours at 37°C
  Stability T½ of Acar3 in complex with the peptide: 10.3 h
[4]; Table S5, half-life estimated from dissociation in scintillation proximity assay, Acar3
  Stability T½ (h), peptide - Acar3: 10.3 h
[5]
  binding to HLA-A*32:15: binding partners
[6]
  binding to HLA-A*68:23: binding partners
[7]
  binding to HLA-B*58:01: binding partners
